Reference: BigSolDB 2.1

Cc1cccc(C(=O)O)c1[N+](=O)[O-]
solubility (mole fraction)
Details | in 1,4-dioxane | in NMP | in acetone | in acetonitrile | in ethanol | in ethyl acetate | in isopropanol | in methanol | in n-propanol
283.15 K | – | 0.0128 | 0.0253 | 0.00464 | 0.0103 | 0.00907 | 0.00877 | 0.0097 | 0.00792
285.65 K | 0.0281 | 0.0141 | 0.0265 | 0.00501 | 0.0111 | 0.00965 | 0.00946 | 0.0104 | 0.00845
288.15 K | 0.0303 | 0.0154 | 0.0277 | 0.00543 | 0.012 | 0.0102 | 0.0102 | 0.0112 | 0.00895
290.65 K | 0.0324 | 0.0168 | 0.0291 | 0.00588 | 0.013 | 0.0108 | 0.011 | 0.012 | 0.00955
293.15 K | 0.0346 | 0.0184 | 0.0305 | 0.00633 | 0.014 | 0.0115 | 0.0118 | 0.0129 | 0.0102
295.65 K | 0.0371 | 0.0201 | 0.0318 | 0.00684 | 0.0152 | 0.0121 | 0.0126 | 0.0138 | 0.0109
298.15 K | 0.0396 | 0.0218 | 0.0333 | 0.00737 | 0.0165 | 0.0128 | 0.0136 | 0.0149 | 0.0116
300.65 K | 0.0424 | 0.0234 | 0.0347 | 0.00788 | 0.0179 | 0.0136 | 0.0145 | 0.0159 | 0.0124
303.15 K | 0.0452 | 0.0254 | 0.0364 | 0.00846 | 0.0193 | 0.0144 | 0.0153 | 0.0171 | 0.0133
305.65 K | 0.0483 | 0.0273 | 0.0379 | 0.00915 | 0.0207 | 0.0151 | 0.0163 | 0.0183 | 0.0141
308.15 K | 0.0512 | 0.0296 | 0.0396 | 0.00984 | 0.0223 | 0.016 | 0.0175 | 0.0196 | 0.0151
310.65 K | 0.0543 | 0.032 | 0.0414 | 0.0106 | 0.0238 | 0.017 | 0.0186 | 0.0209 | 0.016
313.15 K | 0.0577 | 0.0345 | 0.0432 | 0.0113 | 0.0257 | 0.018 | 0.0198 | 0.0223 | 0.0169
315.65 K | 0.0609 | 0.0372 | 0.045 | 0.0121 | 0.0276 | 0.019 | 0.021 | 0.0237 | 0.0178
318.15 K | 0.0646 | 0.0405 | 0.0466 | 0.0128 | 0.0296 | 0.02 | 0.0224 | 0.0252 | 0.0188
